Laboratory results: patent publication US20250129344A1, “MODIFIED GLUTAMATE DEHYDROGENASE AND APPLICATION THEREOF” (Hunan Lier Biotech Co., Ltd., priority 2021, published 2025)
Substitutions are numbered along the chain they refer to.

What was measured:
Test in all cases: Dynamic properties (Michaelis-Menten) of LsGluDH mutant, PPO reductive amination
Format in all cases: biochemical
Settings in all cases: PPO 5-100 mM, NADPH 0.15 mM, NH4Cl 50 mM, PBS pH 7.5, 30° C., diluted crude enzyme, 340 nm
[1] = target: T1, Lysinibacillus sphaericus glutamate dehydrogenase (LsGluDH, SEQ ID NO: 2) variant A175G-V173G, SEQ ID NO: 35 (Lysinibacillus pinottii, UniProt A0ABT2DNY0, A175G/V173G)
T1 sequence (A0ABT2DNY0 1-457 V173G/A175G): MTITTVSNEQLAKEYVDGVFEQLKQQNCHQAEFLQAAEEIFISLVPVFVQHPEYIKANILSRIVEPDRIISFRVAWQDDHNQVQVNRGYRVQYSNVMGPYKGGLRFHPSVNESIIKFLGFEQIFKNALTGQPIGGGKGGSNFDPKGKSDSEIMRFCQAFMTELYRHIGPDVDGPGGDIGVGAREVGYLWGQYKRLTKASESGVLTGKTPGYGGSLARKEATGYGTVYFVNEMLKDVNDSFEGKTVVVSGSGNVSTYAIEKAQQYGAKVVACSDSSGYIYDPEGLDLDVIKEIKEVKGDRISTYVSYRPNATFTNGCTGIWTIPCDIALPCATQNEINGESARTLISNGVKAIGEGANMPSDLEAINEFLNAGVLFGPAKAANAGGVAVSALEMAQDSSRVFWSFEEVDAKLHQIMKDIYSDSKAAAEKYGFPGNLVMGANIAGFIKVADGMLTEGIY
Protocol: (§1) A plurality of reaction systems (200 μL) comprising PBS of 100 mM pH 7.5 (pH was adjusted with aqueous ammonia solution), NADPH (reductive) of 0.15 mM, NH4Cl of 50 mM, diluted (500 folds) crude enzyme solution of 10% volume and the substrate PPO at various concentrations (5-100 mM) were formulated on a 96-well plate. The intensity of the UV absorption at 340 nm was detected at 30° C., and the rate of change in absorption over time (mA/min) was recorded. The obtained parameters were plugged into Michaelis-Menten equation, in which the reaction velocity was calculated with the rate of change in absorption.
(§2) The mutants were prepared with the coding nucleic acid of LsGluDH (SEQ ID NO: 2) as the template, and the enzyme activities and the dynamic parameters Vmax and Km were measured, according to the method of Example 1. The resulted mutants and the enzyme activities and the dynamic parameters thereof are shown in Table 2, and the relative enzyme activity means the percentage of the enzyme activity of the mutant to the enzyme activity of the mutant of SEQ ID NO: 31.

[2] = target: T2, Lysinibacillus sphaericus glutamate dehydrogenase (LsGluDH, SEQ ID NO: 2) variant A175G-V173G-A182R, SEQ ID NO: 37 (Lysinibacillus pinottii, UniProt A0ABT2DNY0, A175G/A182R/V173G)
T2 sequence (A0ABT2DNY0 1-457 V173G/A175G/A182R): T1 sequence (A0ABT2DNY0 1-457 V173G/A175G) with A182R
Protocol: as §1, §2

[3] = target: T3, Lysinibacillus sphaericus glutamate dehydrogenase (LsGluDH, SEQ ID NO: 2) variant A175G-I133V, SEQ ID NO: 33 (Lysinibacillus pinottii, UniProt A0ABT2DNY0, A175G/I133V)
T3 sequence (A0ABT2DNY0 1-457 A175G/I133V): T1 sequence (A0ABT2DNY0 1-457 V173G/A175G) with I133V, G173V
Protocol: as §1, §2

[4] = target: T4, Lysinibacillus sphaericus glutamate dehydrogenase (LsGluDH, SEQ ID NO: 2) variant A175G, SEQ ID NO: 31 (Lysinibacillus pinottii, UniProt A0ABT2DNY0, A175G)
T4 sequence (A0ABT2DNY0 1-457 A175G): T1 sequence (A0ABT2DNY0 1-457 V173G/A175G) with G173V
Protocol: as §1, §2

Compound `CP(=O)(O)CCC(=O)C(=O)O` [PPO, 2-carbonyl-4-(hydroxymethylphosphono) butyric acid] has a Km [1] of 49 mM, a Vmax [1] of 64 mA/min and a Km [2] of 31 mM. For the same compound, the Vmax [2] was 58 mA/min, the Km [3] was 35 mM and the Vmax [3] was 39 mA/min. The Km [4] was 49 mM and the Vmax [4] was 39 mA/min.
